# Laboratory results published in the supplement of paper PMC10307832.
# How the values were obtained:
# Assay in all cases: relative viability (nuclei count vs DMSO), 5 days (fraction); higher = more cells survive
# [1] = compound: Nc1nc2[nH]cc(CCc3ccc(C(=O)N[C@@H](CCC(=O)O)C(=O)O)cc3)c2c(=O)[nH]1 [Pemetrexed] + CC(=O)Nc1cccc(-n2c(=O)n(C3CC3)c(=O)c3c(Nc4ccc(I)cc4F)n(C)c(=O)c(C)c32)c1 [Trametinib] (partner 0.02 µM)
# In short: (§1)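 Cells from lung cancer lines were seeded into 1536-well plates and, one day later, dosed by pin tool. Treatments were either a single drug or a fixed dose of an anchor drug with five library-drug doses (not always all listed) in √10 steps. After 5 days, nuclei were stained in a one-step fixation (final 0.05% Triton X-100, 1% formaldehyde, 1 ug/ml Hoechst) and counted on 4× images, and relative viability is the treated-to-vehicle nuclei ratio, as the median of duplicate plates.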
# [2] = compound: CC[C@H](Nc1ncnc2[nH]cnc12)c1nc2cccc(F)c2c(=O)n1-c1ccccc1 [Idelalisib] + Cc1nc(NC(=O)N2CCC[C@H]2C(N)=O)sc1-c1ccnc(C(C)(C)C(F)(F)F)c1 [Alpelisib] (partner 2 µM)
# In short: as §1
# [3] = compound: CC[C@H](Nc1ncnc2[nH]cnc12)c1nc2cccc(F)c2c(=O)n1-c1ccccc1 [Idelalisib] + CS(=O)(=O)N1CCN(Cc2cc3nc(-c4cccc5[nH]ncc45)nc(N4CCOCC4)c3s2)CC1 [Pictilisib] (partner 1 µM)
# In short: as §1
# [4] = compound: CC[C@H](Nc1ncnc2[nH]cnc12)c1nc2cccc(F)c2c(=O)n1-c1ccccc1 [Idelalisib] + Cc1cc(Nc2cc(N3CCN(C)CC3)nc(Sc3ccc(NC(=O)C4CC4)cc3)n2)n[nH]1 [Tozasertib] (partner 0.1 µM)
# In short: as §1
Cell Line,relative viability ([1]; first compound 0.002 µM),relative viability ([1]; first compound 0.006325 µM),relative viability ([1]; first compound 0.02 µM),relative viability ([1]; first compound 0.06325 µM),relative viability ([1]; first compound 0.2 µM),relative viability ([2]; first compound 0.04 µM),relative viability ([2]; first compound 0.1265 µM),relative viability ([2]; first compound 0.4 µM),relative viability ([2]; first compound 1.265 µM),relative viability ([2]; first compound 4 µM),relative viability ([3]; first compound 0.04 µM),relative viability ([3]; first compound 0.1265 µM),relative viability ([3]; first compound 0.4 µM),relative viability ([3]; first compound 1.265 µM),relative viability ([3]; first compound 4 µM),relative viability ([4]; first compound 0.04 µM),relative viability ([4]; first compound 0.1265 µM),relative viability ([4]; first compound 0.4 µM),relative viability ([4]; first compound 1.265 µM),relative viability ([4]; first compound 4 µM)
NCI-H2347,0.282,0.376,0.246,0.287,0.28,0.964,1,0.989,1.07,0.881,0.398,0.69,0.487,0.623,0.756,0.591,0.517,0.408,0.443,0.441
NCI-H2405,0.735,0.589,0.66,0.582,0.653,0.811,0.642,0.537,0.683,0.544,0.492,0.471,0.387,0.401,0.447,0.841,0.864,0.671,0.762,0.672
NCI-H3122,0.255,0.236,0.252,0.218,0.202,0.709,0.782,0.685,0.777,0.631,0.595,0.594,0.551,0.669,0.557,0.377,0.372,0.41,0.4,0.399
PC-3 [JPC-3],0.748,0.666,0.683,0.657,0.725,1.11,1.02,0.981,0.963,0.855,0.895,0.749,0.73,0.737,0.601,0.966,0.913,0.853,0.901,0.715
PC-14,0.681,0.651,0.805,0.198,0.123,0.992,0.882,0.874,0.983,0.9,0.765,0.788,0.705,0.688,0.506,0.638,0.603,0.557,0.6,0.553
RERF-LC-KJ,0.842,0.856,0.909,0.736,0.639,0.735,0.71,0.785,0.77,0.645,0.493,0.521,0.581,0.516,0.53,0.539,0.502,0.47,0.474,0.449
SK-LU-1,0.412,0.478,0.61,0.402,0.424,1.43,1.12,0.886,0.876,0.968,0.553,0.668,0.532,0.574,0.552,0.294,0.313,0.337,0.32,0.327
SK-MES-1,0.553,0.568,0.618,0.559,0.539,0.837,0.913,0.753,0.715,0.574,0.377,0.365,0.355,0.414,0.36,0.972,1.05,0.955,0.964,0.931
SW 1573,0.511,0.521,0.572,0.474,0.577,0.822,0.612,0.711,0.729,0.633,0.547,0.523,0.513,0.668,0.393,0.168,0.181,0.163,0.201,0.142
